Earlier results as cited in patent publication US10517870B2, “Aryl substituted bicycle heteroaryl compounds” (Bristol-Myers Squibb Company, priority 2015, dated 2019).

Assays:
[1] = biological target: T1, protease-activated receptor type 4 (PAR4) (Homo sapiens, UniProt Q96RI0); conditions: Lee et al., J. Med. Chem. 2001; cited from earlier work
T1 sequence (Q96RI0 18-385): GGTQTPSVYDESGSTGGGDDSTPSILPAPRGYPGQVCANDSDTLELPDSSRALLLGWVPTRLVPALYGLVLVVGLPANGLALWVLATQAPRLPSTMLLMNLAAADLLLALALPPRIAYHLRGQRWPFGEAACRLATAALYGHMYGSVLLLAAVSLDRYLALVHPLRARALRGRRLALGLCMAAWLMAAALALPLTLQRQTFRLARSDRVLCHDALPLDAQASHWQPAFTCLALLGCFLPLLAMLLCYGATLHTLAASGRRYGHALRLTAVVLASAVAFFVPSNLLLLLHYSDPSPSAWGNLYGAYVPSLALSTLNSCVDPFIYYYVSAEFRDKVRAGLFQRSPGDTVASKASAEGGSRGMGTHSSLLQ

[2] = ACS patients, TRACER phase III trial; cited from earlier work

SMILES	inhibition of PAR4-dependent platelet activation [1]	cardiovascular events [2]	risk of major bleeding [2]
CCOC(=O)c1ccc(-c2nn(Cc3ccccc3)c3ccccc23)cc1 [YD-3]	selective and potent inhibitor	–	–
CCOC(=O)N[C@@H]1CC[C@@H]2[C@@H](C1)C[C@H]1C(=O)O[C@H](C)[C@H]1[C@H]2/C=C/c1ccc(-c2cccc(F)c2)cn1 [vorapaxar]	–	did not significantly reduce cardiovascular events	significantly increased the risk of major bleeding
